As usually defined, the IC50 is the concentration needed to halve the response being measured.

Our source for the IC50 values is US8283473B2, “Platinum complex compound and utilization of the same” (Yakult Honsha Co., Ltd, priority 2008, dated 2012).

The assay concerns H460 non-small cell lung cancer cells. Nature of the assay: In vitro cytotoxicity (inhibitory activity on cancer cell proliferation), MTT formazan absorbance assay. The settings on record: 24 hours incubation at 37° C., absorbance at 550 nm, read-out: IC50 value of platinum complex compounds for H460 non-small cell lung cancer cells. It counts as cell-based. How it is done:
<Investigation of the In Vitro Cytotoxicity (Inhibitory Activity on Cancer Cell Proliferation) for H460 Non-Small Cell Lung Cancer Cells>
On the day prior to the day of agent addition, H460 non-small cell lung cancer cells were plated onto 24-well flatbottom microplates at 12,000 to 20,000 cells/well. An aqueous solution was prepared for each sample (refer to the sample numbers in Table 1) by dissolving the sample in Q-H2O water to a concentration of 100 μM. These aqueous solutions were diluted to provide solutions with various concentrations, and 1 mL of the particular dilution was introduced into each well. After incubation of the microplate for 24 hours at 37° C., […] a 2,5-diphenyl-3-(4,5-dimethylthiazol-2-yl)tetrazolium bromide (MIT) solution (5 mg/mL) was added to each well and incubation was continued for an additional 4 hours at 37° C. 200 μL dimethyl sulfoxide (DMSO) was added to each well in order to dissolve the formazan produced and precipitated as a result of reduction of the MIT. The absorbance at 550 nm of each well was measured using a microplate reader.
The absorbance of each well was measured three times and each experiment was repeated at least three times. The IC50 value was calculated as the concentration that provided a 50% formazan production with reference to the control (no agent addition).

Like-named read-outs stand apart in the source and are kept apart here.

Regarding `N.N.[Cl][Pt][Cl]` [sample 3, cis-diamminedichloridoplatinum(II)], the IC50 is 23 µM (Table 1, then 4 hours with tetrazolium dye) and 23 µM (Table 2, same procedure).
With `O=[N+]([O-])O.O=[N+]([O-])[O-].[NH2][Pt]1([NH2])[O][Pt]([NH2])([NH2])[n+]2ncc[n]21` [sample 9, [{cis-Pt(NH3)2}2(μ-OH)(μ-1,2,3-triazolato-N1,N2)](NO3)2], the IC50 (Table 2, same procedure) amounted to 62 µM.
Consider “[{cis-Pt(NH3)2}2(μ-OH)(μ-5-methyltetrazolato-N2,N3)](NO3)2 [sample 6]”, for which the IC50 (Table 2, same procedure) came to 20 µM.
Take “[{cis-Pt(NH3)2}2(μ-OH)(μ-pyrazolato)](NO3)2 [sample 8]”: the IC50 (Table 2, same procedure) was over 100 µM.
As to “[{cis-Pt(NH3)2}2(μ-OH)(μ-tetrazolato-5-ethylacetate-N2,N3)](NO3)2 [sample 7]”, under “Table 2, same procedure”, the IC50 came to 22 µM.
Regarding “[{cis-Pt(NH3)2}2(μ-OH)(μ-tetrazolato-N1,N2)](ClO4)2 [sample 4]”, the IC50 (Table 2, same procedure) is 21 µM.
As to “[{cis-Pt(NH3)2}2(μ-OH)(μ-tetrazolato-N2,N3)](ClO4)2 [sample 5]”, the IC50 (Table 2, same procedure) is 8.3 µM.
